Results taken from paper PMC10610188, “Structure–Activity Relationship Studies of Chalcones and Diarylpentanoids with Antitumor Activity: Potency and Selectivity Optimization” (Pharmaceuticals, 2023).
Like-named read-outs stand apart in the source and are kept apart here.

Experiments:
HCT116 p53^+/+ cells [1] = conditions: SRB assay; ref Moreira et al. [21]; cited from earlier work
HCT116 p53^−/− cells [2] = assay: SRB growth inhibition assay in HCT116 p53-/- cells; assay type: cell-based, human; conditions: for SI1: Selective index 1: GI50 of HCT116 p53^−/−/GI50 of HCT116 p53^+/+
HFF-1 cells [3] = assay: SRB growth inhibition assay in normal fibroblasts HFF-1; assay type: cell-based, human; conditions: for SI2: Selective index 2: GI50 of HFF-1/GI50 of HCT116 p53^+/+
HCT116 p53^−/− cells [4] = conditions: SRB assay; ref Moreira et al. [21]; cited from earlier work
human cancer cells = system: human cancer cells; design: method as in PMID 34170069, doi:10.1016/j.arabjc.2016.04.015; conditions: read-out: GI50 against human cancer cells; cited from earlier work
HFF-1 cells [5] = system: HFF-1 cells; design: method as in Moreira et al. [21]; conditions: SRB assay; ref Moreira et al. [21]; cited from earlier work
PARP = assay: Western blot, PARP cleavage; assay type: cell-based, human; conditions: 5 µM, 48 h, HCT116 p53^+/+
Method: (§1) For Western blotting, 1.5 × 10^5 cells (per well) of HCT116 p53^+/+ cells were seeded in six-well plates and allowed to adhere for 24 h, followed by treatment with 5 μM 17 for 48 h. Protein extracts obtained from the human cancer cells were quantified using the Pierce™ BCA Protein Assay Kit (Thermo Scientific, Taper, Sintra, Portugal), according to the manufacturer’s instructions. The proteins were then run in SDS-PAGE and transferred to a Whatman nitrocellulose membrane from Protan (VWR, Carnaxide, Portugal). Proteins were detected using the primary antibodies anti-p53 (Santa Cruz Biotechnology, Dallas, TX, USA, SC-126, 1:5000), anti-BCL-2 (Santa Cruz Biotechnology, SC-7382, 1:200), anti-PARP (Cell Signaling, #9542, 1:1000), and anti-GAPDH (Santa Cruz Biotechnology, SC-32233, 1:10,000), followed by HRP-conjugated secondary antibodies anti-mouse (Santa Cruz Biotechnology, SC-2005, 1:2500) and anti-rabbit (Santa Cruz Biotechnology, SC-2006, 1:2500). GAPDH was used as a loading control. The signal was detected with an ECL Amersham kit from GE Healthcare (VWR) and the ChemiDoc™ MP Imaging System (Bio-Rad, Amadora, Portugal).

Bcl-2 = assay: Western blot, Bcl-2 protein levels; assay type: cell-based, human; conditions: 5 µM, 48 h, HCT116 p53^+/+
Method: as §1

HCT116 p53^+/+ cells [6] = assay: Annexin V-FITC apoptosis analysis by flow cytometry; assay type: cell-based, human; conditions: 5 µM, 48 h
Method: The 1.5 × 10^5 HCT116 p53^+/+ cells/well were seeded in 6-well plates and then treated with 5 µM 17 for 48 h. For the apoptosis analysis, an Annexin V-FITC Apoptosis Detection Kit I (BD Biosciences, Franklin Lakes, NJ, USA) was used following the manufacturer’s instructions. An AccuriTM C6 flow cytometer and the BD Accuri C6 software were used for data acquisition.

HCT116 p53^+/+ cells [7] = assay: SRB growth inhibition assay in HCT116 p53+/+ cells; assay type: cell-based, human; conditions: SRB assay, 48 h of treatment
p53 = assay: Western blot, p53 protein levels; assay type: cell-based, human; conditions: 5 µM, 48 h, HCT116 p53^+/+
Method: as §1

| Structure (SMILES) | GI50 (HCT116 p53^+/+ cells [1]) | SI1: Selective index 1 (HCT116 p53^−/− cells [2]) | SI2: Selective index 2 (HFF-1 cells [3]) | GI50 (HCT116 p53^−/− cells [4]) | GI50 (human cancer cells) | GI50 (HFF-1 cells [5]) | PARP cleavage (Western blot) (PARP) | GI50 (HCT116 p53^−/− cells [2]; Homo sapiens, HCT-116, SRB assay, 48 h of treatment) | GI50 value in HFF-1 cells relative to HCT116 p53^+/+ cells (fold higher) (HFF-1 cells [3]) | GI50 (HFF-1 cells [3]; Homo sapiens, HFF-1, SRB assay, 48 h of treatment) | Bcl-2 protein levels (Western blot) (Bcl-2) | apoptosis (annexin-positive cells) (HCT116 p53^+/+ cells [6]) | GI50 (HCT116 p53^+/+ cells [7]; Homo sapiens, HCT-116, 48 h) | GI50 (HCT116 p53^+/+ cells [7]) | p53 protein levels (Western blot) (p53) |
| --- | --- | --- | --- | --- | --- | --- | --- | --- | --- | --- | --- | --- | --- | --- | --- |
| O=C1/C(=C/c2ccc(Cl)cc2)COC/C1=C\c1ccc(Cl)cc1 [BP-C4 (2), 3,5-bis((E)-4-chlorobenzylidene)tetrahydro-4H-pyran-4-one] | 6.25 ± 1.18 µM | 1.62 | 5.79 | 10.1 ± 0.47 µM | 6.25 µM | 36.2 ± 5.54 µM |  |  |  |  |  |  |  |  |  |
| O=C(/C=C/c1ccc(Cl)cc1)/C=C/c1ccc(Cl)cc1 [Compound 17] |  | 1.63 | 12.43 |  |  |  | PARP cleavage | 3.55 ± 0.05 µM | 12 fold | 27.1 ± 1.25 µM | depletion of the protein levels of the anti-apoptotic protein Bcl-2 | induced apoptosis | 2.8 µM | 2.18 ± 0.59 µM | did not interfere with the p53 protein levels |
